Test results reported in US10208056B2, “Condensed tricyclic compounds as protein kinase inhibitors” (FUNDACIÓN DEL SECTOR PÚBLICO ESTATAL CENTRO NACIONAL DE …, priority 2015, dated 2019).

Key:
Haspin kinase = Haspin kinase (Homo sapiens (Human), UniProt Q8TF76); assay: Haspin kinase assay (ADP-Glo); type: biochemical; conditions: ATP 150 μM
Excerpt: The kinase assay relies on ADP-Glo^KM biochemical kinase assay (Promega). This is a luminescent kinase assay that measures ADP formed from a kinase reaction. Then ADP is converted into ATP, which is transformed into a light signal by Ultra-Glo™ Luciferase. The luminescent signal positively correlates with kinase activity. The assay measures the intrinsic ATPase activity (in the absence of peptidic substrate as phosphate acceptor).
The enzyme was purchase from Invitrogen (PV5708) as the kinase domain of GST tagged recombinant human proteins.
Assay conditions were as indicated by the kit manufacturers with the following adaptations: • Assay buffer: 15 mM HEPES pH 7.4, 20 mM NaCl, 1 mM EGTA, 0.02% Tween 20, 10 mM MgCl2, 0.1 mg/ml BGG • Assay volume: 20 μl • Incubation time and temperature: 60 min at 30° C. • Haspin concentration: 20 nM • ATP concentration: 150 μM • Tested compound: Serial 1:3 dilutions • Final DMSO concentration in the assay: 1%
Assays were performed in 384-well plates. The final read out was generated using an EnVision plate reader (Perkin-Elmer). Luminescent relative units are normalized against the control activity included for each compound (i.e., 100% Haspin activity, without compound) and the percentage of inhibition is calculated.

CDK8/Cyclin C = CDK8/Cyclin C (Homo sapiens (Human), UniProt P49336); assay: CDK8/Cyclin C binding assay (LanthaScreen Eu-Kinase Binding Assay); conditions: binding assay
Sequence of CDK8/Cyclin C (P49336 whole entry): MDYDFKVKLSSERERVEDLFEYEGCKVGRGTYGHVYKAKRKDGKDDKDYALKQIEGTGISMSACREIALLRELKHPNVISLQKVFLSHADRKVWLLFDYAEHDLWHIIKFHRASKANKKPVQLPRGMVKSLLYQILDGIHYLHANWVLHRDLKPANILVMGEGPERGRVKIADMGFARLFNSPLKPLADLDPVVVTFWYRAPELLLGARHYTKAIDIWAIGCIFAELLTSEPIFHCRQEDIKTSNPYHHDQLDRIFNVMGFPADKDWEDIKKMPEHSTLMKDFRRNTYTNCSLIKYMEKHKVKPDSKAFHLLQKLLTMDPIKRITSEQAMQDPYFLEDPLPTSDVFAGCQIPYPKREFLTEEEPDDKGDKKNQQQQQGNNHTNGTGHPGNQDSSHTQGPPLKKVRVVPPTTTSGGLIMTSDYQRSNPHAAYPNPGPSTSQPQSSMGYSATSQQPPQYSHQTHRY
Sequence of CDK8/Cyclin C (P24863 whole entry partner): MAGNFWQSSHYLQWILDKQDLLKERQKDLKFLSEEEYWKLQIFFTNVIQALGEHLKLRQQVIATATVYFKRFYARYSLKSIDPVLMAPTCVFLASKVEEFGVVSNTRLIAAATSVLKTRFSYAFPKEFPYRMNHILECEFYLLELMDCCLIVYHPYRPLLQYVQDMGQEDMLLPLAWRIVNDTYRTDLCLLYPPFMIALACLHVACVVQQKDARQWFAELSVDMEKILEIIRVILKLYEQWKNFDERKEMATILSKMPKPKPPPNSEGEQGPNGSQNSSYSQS
Procedure: The enzyme has been purchase from Invitrogen (PV4402) as a dimer of full-length His-tagged recombinant human proteins.
(§1) Assays were performed in 384-well plates. The final read out was generated using an EnVision plate reader (Perkin-Elmer).

CDK19/Cyclin C = CDK19/Cyclin C (Homo sapiens (Human), UniProt Q9BWU1); assay: CDK19/Cyclin C binding assay (LanthaScreen Eu-Kinase Binding Assay); conditions: read-out: CDK19-CYCC IC50
Sequence of CDK19/Cyclin C (Q9BWU1 whole entry): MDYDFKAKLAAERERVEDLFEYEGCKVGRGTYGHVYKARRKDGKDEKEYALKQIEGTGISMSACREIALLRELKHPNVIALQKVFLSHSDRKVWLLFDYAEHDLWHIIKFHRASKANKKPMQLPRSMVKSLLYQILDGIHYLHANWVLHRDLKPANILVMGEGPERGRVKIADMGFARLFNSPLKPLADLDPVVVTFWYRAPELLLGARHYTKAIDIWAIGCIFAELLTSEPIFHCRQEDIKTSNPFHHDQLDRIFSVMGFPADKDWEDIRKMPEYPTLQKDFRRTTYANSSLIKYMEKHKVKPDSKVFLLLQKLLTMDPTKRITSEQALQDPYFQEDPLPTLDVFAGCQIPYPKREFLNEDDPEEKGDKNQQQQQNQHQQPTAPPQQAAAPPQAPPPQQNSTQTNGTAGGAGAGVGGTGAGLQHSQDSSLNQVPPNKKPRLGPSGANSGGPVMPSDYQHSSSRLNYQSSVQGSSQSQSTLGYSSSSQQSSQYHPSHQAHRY
Sequence of CDK19/Cyclin C (P24863 whole entry partner): as the sequence (P24863 whole entry partner) above
Procedure: The binding assay relies on the LanthaScreen™ Eu-Kinase Binding Assay (Invitrogen).
Assay conditions were as indicated by the kit manufacturers with the following adaptations: • Assay buffer: 50 mM HEPES, pH 7.5, 1 mM EGTA, 0.01% Brij-35, 10 mM MgCl2 • Assay volume: 20 μl • Incubation time and temperature: 60 min at 25° C. • Cdk19-Cyclin C concentration: 2 nM • Tracer concentration: 20 nM • (Eu)-labelled anti-GST antibody concentration: 2 nM • Tested compound: Serial 1:3 dilutions • Final DMSO concentration in the assay: 1%
as §1

Sequence of Haspin kinase (Q8TF76 484-798): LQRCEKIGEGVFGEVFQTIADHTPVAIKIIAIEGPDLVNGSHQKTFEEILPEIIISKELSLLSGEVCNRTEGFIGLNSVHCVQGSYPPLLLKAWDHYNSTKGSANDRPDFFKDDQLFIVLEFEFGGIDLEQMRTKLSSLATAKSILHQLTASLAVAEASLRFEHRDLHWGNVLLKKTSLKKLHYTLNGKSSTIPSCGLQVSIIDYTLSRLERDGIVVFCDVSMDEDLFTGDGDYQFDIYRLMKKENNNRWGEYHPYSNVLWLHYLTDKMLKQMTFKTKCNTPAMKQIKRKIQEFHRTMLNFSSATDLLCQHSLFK

Compound | IC50 (Haspin kinase) | IC50 (CDK8/Cyclin C) | IC50 (CDK19/Cyclin C)
NC(=O)c1cc2c([nH]1)-c1ccncc1OC21CCN(C2CC2)CC1 [Example 16] | 4280 nM | 5700 nM | –
CC1(C)Oc2cnccc2-c2[nH]c(C(=O)NCCc3ccccc3)cc21 [Example 11] | 418 nM | 162 nM | –
CC1(C)Oc2cnccc2-c2[nH]c(C(N)=O)c(-c3ccccc3O)c21 [Example 64] | 656 nM | 112 nM | –
CCn1c(C(=O)O)cc2c1-c1ccncc1OC2(C)C [Example 44] | 6730 nM | 312 nM | –
CC1(C)Oc2cnccc2-c2[nH]c(C(N)=O)c(-c3ccc4[nH]ncc4c3)c21 [Example 65] | 933 nM | 10000 nM | 10000 nM
CC1(C)Oc2cnccc2-c2[nH]c(C(=O)NCc3ccccc3)cc21 [Example 8] | 305 nM | 340 nM | –
CC(C)n1c(C(N)=O)cc2c1-c1ccncc1OC2(C)C [Example 25] | 22300 nM | 5870 nM | –
CC1(C)Oc2cnccc2-c2[nH]c(C(=O)NC3CCNCC3)cc21 [Example 10] | 1730 nM | 3520 nM | –
CC1(C)Oc2cnccc2-c2[nH]c(C(=O)Nc3ccccc3)cc21 [Example 4] | 7550 nM | 5280 nM | –
COC(=O)c1cc2c([nH]1)-c1ccncc1OC2(C)C [VIII] | – | 677 nM | –
COCCn1c(C(=O)O)cc2c1-c1ccncc1OC2(C)C [Example 27] | 49900 nM | 10000 nM | –
O=C(O)c1cc2c([nH]1)-c1ccncc1OC21CCN(CC(F)(F)F)CC1 [Example 19] | 2950 nM | 652 nM | –
COc1ccccc1-c1c(C(N)=O)[nH]c2c1C(C)(C)Oc1cnccc1-2 [Example 63] | 3960 nM | 55.4 nM | 229 nM
CC(C)NC(=O)c1cc2c([nH]1)-c1ccncc1OC2(C)C [Example 6] | 1780 nM | 2410 nM | –
CC1(C2(C)Oc3cnccc3-c3[nH]c(C(N)=O)cc32)COC1 (centres unmarked) [Example 49] | 5700 nM | 315 nM | –
CC1(C)Oc2cnccc2-c2c1cc(C(=O)O)n2Cc1ccccc1 [Example 24] | 20400 nM | 10000 nM | –
CC1(C)Oc2cnccc2-c2[nH]c(C(=O)N3CCOCC3)cc21 [Example 21] | 868 nM | 671 nM | –
CC1(C)Oc2c(ccnc2Cl)-c2[nH]c(C(=O)O)cc21 [Example 37] | 1650 nM | 6290 nM | –
COc1cccc(-c2c(C(N)=O)[nH]c3c2C(C)(C)Oc2cnccc2-3)c1 [Example 85] | 260 nM | 127 nM | –
CC1(C)Oc2c(ccnc2Cl)-c2[nH]c(C(N)=O)cc21 [Example 36] | 292 nM | 559 nM | –
CCN(CC)C(=O)c1cc2c([nH]1)-c1ccncc1OC2(C)C [Example 9] | 2350 nM | 979 nM | –

Compound | IC50 (Haspin kinase) | IC50 (CDK8/Cyclin C) | IC50 (CDK19/Cyclin C)
CC1(C)Oc2cncc(-c3ccccc3)c2-c2[nH]c(C(N)=O)cc21 [Example 39] | 2330 nM | 206 nM | –
Cn1c(C(N)=O)cc2c1-c1c(Cl)cncc1OC2(C)C [Example 41] | 1310 nM | 55.5 nM | 158 nM
CC1(C)Oc2cnccc2-c2[nH]c(C(=O)O)c(C3=CCOCC3)c21 [Example 56] | 683 nM | 78.5 nM | 86.6 nM
CC1(C)Oc2cnccc2-c2[nH]c(C(N)=O)c(-c3ccccc3C(F)(F)F)c21 [Example 74] | 743 nM | 211 nM | –
O=C(O)c1cc2c([nH]1)-c1ccncc1OC21CCN(C2CC2)CC1 [Example 17] | 5960 nM | 1530 nM | –
CC(C)(C)OC(=O)N1CCC(NC(=O)c2cc3c([nH]2)-c2ccncc2OC3(C)C)CC1 [Example 5] | 18400 nM | 1870 nM | –
CCN1CCC2(CC1)Oc1cnccc1-c1[nH]c(C(N)=O)cc12 [Example 42] | 153 nM | 197 nM | –
CC1(C)Oc2cnccc2-c2[nH]c(C(N)=O)c(-c3cccc(S(N)(=O)=O)c3)c21 [Example 40] | 254 nM | 269 nM | –
CNC(=O)c1cc2c([nH]1)-c1ccncc1OC2(C)C [Example 3] | 180 nM | 92.2 nM | 322 nM
NC(=O)c1cc2c([nH]1)-c1ccncc1OC21CCN(CCC(F)(F)F)CC1 [Example 47] | 466 nM | 120 nM | –
COC(=O)c1[nH]c2c(c1-c1ccccc1)C(C)(C)Oc1cnccc1-2 [LXIX] | – | 2000 nM | –
NC(=O)c1cc2c([nH]1)-c1ccncc1OC21CCN(CCCC(F)(F)F)CC1 [Example 48] | 470 nM | 886 nM | –
COc1ccccc1-c1c2c(n(CCF)c1C(=O)NCCF)-c1ccncc1OC2(C)C [Example 78] | 33300 nM | 484 nM | –
CC1(C)Oc2cnc(Cl)cc2-c2[nH]c(C(N)=O)cc21 [Example 38] | 6830 nM | 461 nM | –
COCCNC(=O)c1cc2c([nH]1)-c1ccncc1OC2(C)C [Example 7] | 1020 nM | 1490 nM | –
CC1(C)Oc2cnccc2-c2[nH]c(C(=O)O)cc21 [Example 2] | 306 nM | 146 nM | –
CC1(C)Oc2cnccc2-c2[nH]c(C(N)=O)c(-c3ccc(F)cc3)c21 [Example 50] | 782 nM | 581 nM | –
COC(=O)c1[nH]c2c(c1Br)C(C)(C)Oc1cnccc1-2 [LXVIII] | – | 780 nM | –
CC(C)n1c(C(=O)O)cc2c1-c1ccncc1OC2(C)C [Example 26] | 49000 nM | 5940 nM | –
COC(=O)c1[nH]c2c(c1-c1ccc(S(N)(=O)=O)cc1)C(C)(C)Oc1cnccc1-2 [LXX] | – | 2850 nM | –

Now from value to compound:

IC50 (Haspin kinase) | IC50 (CDK8/Cyclin C) | IC50 (CDK19/Cyclin C) | Compound
151 nM | 13.3 nM | 31.4 nM | CC1(C)Oc2cncc(Cl)c2-c2[nH]c(C(=O)O)cc21 [Example 35]
1000 nM | 23.9 nM | 3.01 nM | O=C(O)c1cc2c([nH]1)-c1ccncc1OC21CCCCC1 [Example 14]
321 nM | 31.9 nM | 171 nM | COc1ccc(-c2c(C(N)=O)[nH]c3c2C(C)(C)Oc2cnccc2-3)cc1 [Example 51]
89.3 nM | 52.5 nM | 205 nM | CC1(C)Oc2cnccc2-c2[nH]c(C(=O)O)c(Br)c21 [Example 29]
206 nM | 54.7 nM | 211 nM | NC(=O)c1cc2c([nH]1)-c1ccncc1OC21CCOCC1 [Example 20]
247 nM | 14.4 nM | 25.5 nM | CC1Oc2cnccc2-c2[nH]c(C(N)=O)cc21 (centres unmarked) [Example 58]
355 nM | < 1.41 nM | – | CCn1c(C(N)=O)cc2c1-c1ccncc1O[C@@H]2C1CCOCC1 (single isomer, unassigned) [Example 96]
73.2 nM | 29.7 nM | 107 nM | CC1(C)Oc2cnccc2-c2[nH]c(C(N)=O)c(-c3ccccc3)c21 [Example 31]
8.82 nM | < 1.41 nM | – | CCn1c(C(N)=O)c(Cl)c2c1-c1ccncc1OC21CCCCC1 [Example 105]
– | 0.191 nM | 1.41 nM | CCn1c(C(N)=O)cc2c1-c1ccncc1OC21CCC1 [Example 66]
27.6 nM | 0.466 nM | 1.41 nM | Cn1c(C(N)=O)cc2c1-c1ccncc1OC21CCC1 [Example 67]
146 nM | 39.3 nM | 70.5 nM | CC1(C)Oc2cnccc2-c2[nH]c(C(N)=O)c(C3=CCOCC3)c21 [Example 55]
235 nM | 26.2 nM | 81.3 nM | CC1(C)Oc2cnccc2-c2[nH]c(C(N)=O)c(-c3ccc(S(N)(=O)=O)cc3)c21 [Example 32]
– | < 1.41 nM | – | CCn1c(C(N)=O)cc2c1-c1ccncc1O[C@H]2C1CCOCC1 (single isomer, unassigned) [Example 95]
90.6 nM | 12.3 nM | 29.5 nM | C=Cc1c(C(N)=O)[nH]c2c1C(C)(C)Oc1cnccc1-2 [Example 33]
52.9 nM | 31.1 nM | 97.1 nM | CC(C)C1(C)Oc2cnccc2-c2[nH]c(C(N)=O)cc21 (centres unmarked) [Example 54]
8.91 nM | 2.41 nM | – | CCn1c(C(N)=O)c(Cl)c2c1-c1ccncc1OC21CCOCC1 [Example 104]
188 nM | 7.48 nM | – | CC(=O)N1CCC2(CC1)Oc1cnccc1-c1[nH]c(C(N)=O)cc12 [Example 77]
25.6 nM | < 1.41 nM | – | NC(=O)c1cc2c(n1CCF)-c1ccncc1OC21CCOCC1 [Example 92]
17.5 nM | 2.65 nM | – | CCn1c(C(N)=O)c(C2CC2)c2c1-c1ccncc1OC2(C)C [Example 94]
